In patent US11111484B2, “Streptococcus bacteriophage lysins for detection and treatment of gram positive bacteria” (priority 2011, dated 2021):

Key:
MRSA strain MW2 = test: resistance assay, exposure to incrementally increasing concentrations; type: cell-based, Staphylococcus aureus; details: concentration doubled daily from 1/32 to 4× MIC over 8 days
MSSA strain 8325 = test: as above; type: cell-based, Staphylococcus aureus; details: MSSA 8325; concentration doubled daily from 1/32 to 4× MIC over 8 days

C/C(=C\C(=O)OCCCCCCCCC(=O)O)C[C@@H]1OC[C@H](C[C@@H]2O[C@H]2[C@@H](C)[C@H](C)O)[C@@H](O)[C@H]1O [mupirocin, reference compound] was tested, and the development of resistance (MRSA strain MW2) was “developed resistance” and the development of resistance (MSSA strain 8325) was “developed resistance”.
